Results as given in ChEMBL document CHEMBL6078623, “Structural insights into small-molecule KRAS inhibitors for targeting KRAS mutant cancers” (Eur J Med Chem, 2024).
Values belong to the molecule of their own block, whether it stands above or below them.

Tests used:
[1] = molecular target: GTPase KRas (Homo sapiens, UniProt P01116, G12C); assay: Inhibition of KRAS G12C mutant in human NCI-H358 cells incubated for 24 hrs by Western blot analysis; format: cell-based
[2] = test system: NCI-H358; assay: Antiproliferative activity against human NCI-H358 cells assessed as reduction in cell viability; format: functional, cell-based
[3] = test system: MIA PaCa-2; assay: Antiproliferative activity against human MIA PaCa-2 cells assessed as reduction in cell viability; format: functional, cell-based
[4] = test system: DLD-1; assay: Antiproliferative activity against human DLD-1 cells assessed as inhibition of cell growth incubated for 72 hrs by MTS assay; format: functional, cell-based; conditions: DLD-1, 72 h
[5] = test system: HT-1080; assay: Cytotoxicity against human HT-1080 cells assessed as reduction in cell viability incubated for 48 hrs by MTT assay; format: functional, cell-based; conditions: HT-1080, 48 h
[6] = molecular target: GTPase KRas (Homo sapiens, UniProt P01116, G12D); assay: Binding affinity to KRAS G12D mutant (unknown origin) assessed as dissociation constant by SPR analysis
GTPase KRas (Homo sapiens, UniProt P01116, G12D), sequence (P01116 whole entry G12D): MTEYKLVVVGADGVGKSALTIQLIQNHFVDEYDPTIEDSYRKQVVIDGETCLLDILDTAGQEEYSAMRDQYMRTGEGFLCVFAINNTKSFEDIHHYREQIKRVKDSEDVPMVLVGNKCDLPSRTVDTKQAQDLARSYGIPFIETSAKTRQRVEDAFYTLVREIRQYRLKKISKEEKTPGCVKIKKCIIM

GTPase KRas (Homo sapiens, UniProt P01116, G12C), sequence (P01116 whole entry G12C): as the sequence (P01116 whole entry G12D) above, with D12C counted along it

- IC50 [1]: 1 µM
SMILES: NC1(C(=O)NCCCn2cc(-c3ccc(OC(F)(F)F)cc3)c3cc(CN4CCN(Cc5c(Cl)cccc5Cl)CC4)ccc32)CCNCC1

SMILES: C=CC(=O)N1CC2(CC(n3nc(-c4ccc5c(cnn5C)c4)c(-c4c(Cl)c(C)cc5[nH]ncc45)c3C)C2)C1 [OPNURASIB]
- IC50 [2]: 0.018 µM
- IC50 [1]: 0.01 µM

SMILES: C=CC(=O)N1CCN(c2nc(=O)n(-c3c(C)ccnc3C(C)C)c3nc(-c4c(O)cccc4F)c(F)cc23)[C@@H](C)C1 [SOTORASIB]
- IC50 [3]: 0.1 µM

- IC50 [1]: 0.00335 µM
SMILES: C=CC(=O)N1CCN2C(=O)Cc3cc(F)c(-c4ccc(F)c5sc(N)c(C#N)c45)c(Cl)c3OCC2C1 (stereo not drawn)

SMILES: COc1nc(-c2cccc3c2OCCO3)ccc1Nc1ccc(CN(C)C)cc1
- IC50 [4]: 8 µM
- IC50 [5]: 10 µM
- Kd [6]: 0.051 µM
